Source: patent US8912213B2, “Synthesis and use of dual tyrosyl-DNA phosphodiesterase I (TDP1)- topoisomerase I (TOP1) inhibitors” (Purdue Research Foundation, priority 2012, dated 2014)
Entries after “also recorded” stand apart in the source; their conditions may differ. Where two headings read alike, the source gives them in different places.

Legend:
Tdp1 = Tdp1 (Homo sapiens (Human), UniProt Q9NUW8); experiment: Gel-based assay measuring the inhibition of recombinant Tdp1; assay type: biochemical;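 also: 5′-32P-labeled single-stranded DNA with 3′-phosphotyrosine incubated with 5 pM enzyme for 15 min at room temperature, inhibition seen as loss of 3′-phosphate product band by densitometry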
Chain of Tdp1 (Q9NUW8 whole entry): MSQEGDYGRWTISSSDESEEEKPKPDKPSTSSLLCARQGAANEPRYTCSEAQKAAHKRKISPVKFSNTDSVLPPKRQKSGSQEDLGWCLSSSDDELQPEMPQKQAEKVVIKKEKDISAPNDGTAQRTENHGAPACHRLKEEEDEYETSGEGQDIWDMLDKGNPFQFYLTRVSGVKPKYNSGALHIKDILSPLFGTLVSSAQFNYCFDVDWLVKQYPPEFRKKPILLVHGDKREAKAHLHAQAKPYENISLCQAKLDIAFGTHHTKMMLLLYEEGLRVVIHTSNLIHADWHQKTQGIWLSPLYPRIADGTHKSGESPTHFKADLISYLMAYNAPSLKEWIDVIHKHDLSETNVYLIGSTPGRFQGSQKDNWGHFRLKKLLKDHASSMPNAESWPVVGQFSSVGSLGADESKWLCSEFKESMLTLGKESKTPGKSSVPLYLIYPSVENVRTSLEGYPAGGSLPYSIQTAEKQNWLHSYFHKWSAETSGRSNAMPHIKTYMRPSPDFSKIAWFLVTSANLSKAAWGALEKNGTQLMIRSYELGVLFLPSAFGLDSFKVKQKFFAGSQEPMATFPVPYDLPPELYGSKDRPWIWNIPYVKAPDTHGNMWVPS
Description: Tdp1 inhibitory activity was measured by the drug's ability to inhibit the hydrolysis of the phosphodiester linkage between tyrosine and the 3′-end of the DNA substrate, and to prevent the generation of an oligonucleotide with a free 3′-phosphate (N14P). Therefore, the disappearance of the gel band for N14P indicated Tdp1 inhibition.
Gel-Based Assay Measuring the Inhibition of Recombinant Tdp1. A 5′-[^32P]-labeled single-stranded DNA oligonucleotide containing a 3′-phosphotyrosine (N14Y) was generated as described by Dexheimer et al. The DNA substrate was then incubated with 5 pM recombinant Tdp1 in the absence or presence of inhibitor for 15 min at room temperature in a buffer containing 50 mM Tris HCl, pH 7.5, 80 mM KCl, 2 mM EDTA, 1 mM DTT, 40 μg/ml BSA and 0.01% Tween-20. […] Gel images were scanned using a Typhoon 8600 (GE Healthcare) and densitometric analyses were performed using the ImageQuant software (GE Healthcare).

Human recombinant Top1 = Human recombinant Top1 (Homo sapiens (Human), UniProt P11387); experiment: Topoisomerase I-mediated DNA cleavage reactions; assay type: biochemical; details: for Top1 (compound-induced DNA cleavage, semiquantitative scale): series (B), relative to 1 μM camptothecin (90) or MJ-III-65 (91); for Top1 (compound-induced DNA cleavage due to Top1 inhibition): semiquantitative;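 as to all read-outs here: 3′-end radiolabeled DNA substrate (about 2 nM) incubated with recombinant Top1 and compound for 20 min at 25 °C, cleavage products resolved by denaturing PAGE and phosphoimaging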
Chain of Human recombinant Top1 (P11387 whole entry): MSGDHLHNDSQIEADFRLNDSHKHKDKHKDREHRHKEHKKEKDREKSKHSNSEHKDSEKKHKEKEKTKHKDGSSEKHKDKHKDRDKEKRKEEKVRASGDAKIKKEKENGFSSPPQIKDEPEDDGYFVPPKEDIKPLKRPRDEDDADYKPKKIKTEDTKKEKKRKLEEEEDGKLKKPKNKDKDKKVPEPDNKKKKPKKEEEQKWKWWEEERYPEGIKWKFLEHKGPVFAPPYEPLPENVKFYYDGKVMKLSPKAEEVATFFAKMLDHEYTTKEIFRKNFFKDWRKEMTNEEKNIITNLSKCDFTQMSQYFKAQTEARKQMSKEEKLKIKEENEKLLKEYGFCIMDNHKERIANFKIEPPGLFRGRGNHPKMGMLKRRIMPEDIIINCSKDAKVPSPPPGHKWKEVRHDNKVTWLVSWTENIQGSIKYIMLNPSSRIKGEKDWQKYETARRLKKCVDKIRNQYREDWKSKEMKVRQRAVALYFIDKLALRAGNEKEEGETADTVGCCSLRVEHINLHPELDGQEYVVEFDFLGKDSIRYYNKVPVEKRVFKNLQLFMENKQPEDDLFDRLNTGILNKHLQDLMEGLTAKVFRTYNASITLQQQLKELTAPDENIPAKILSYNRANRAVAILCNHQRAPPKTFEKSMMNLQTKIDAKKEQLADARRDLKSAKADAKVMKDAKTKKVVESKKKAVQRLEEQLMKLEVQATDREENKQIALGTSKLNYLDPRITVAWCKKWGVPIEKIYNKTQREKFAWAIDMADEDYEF
Description: Additionally, all indenoisoquinoline sulfonates and sulfonamides were tested for Top1 cleavage complex poisoning in a Top1-mediated DNA cleavage assay.
Topoisomerase I-Mediated DNA Cleavage Reactions. Human recombinant Top1 was purified from baculovirus as previously described. DNA cleavage reactions were prepared as previously reported with the exception of the DNA substrate. […] Unincorporated [^32P]dGTP was removed using mini Quick Spin DNA columns (Roche, Indianapolis, Ind.), and the eluate containing the 3′-end-labeled DNA substrate was collected. Approximately 2 nM radiolabeled DNA substrate was incubated with recombinant Top1 in 20 μL of reaction buffer [10 mM Tris-HCl (pH 7.5), 50 mM KCl, 5 mM MgCl2, 0.1 mM EDTA, and 15 μg/mL BSA] at 25° C. for 20 min in the presence of various concentrations of compounds. The reactions were terminated by adding SDS (0.5% final concentration) followed by the addition of two volumes of loading dye (80% formamide, 10 mM sodium hydroxide, 1 mM sodium EDTA, 0.1% xylene cyanol, and 0.1% bromphenol blue). Aliquots of each reaction mixture were subjected to 20% denaturing PAGE. Gels were dried and visualized by using a phosphoimager and ImageQuant software (Molecular Dynamics).
Topoisomerase I-Mediated DNA Cleavage Reactions. Top1 reactions were performed as recently described. […] The reactions were terminated by adding SDS (0.5% final concentration) followed by the addition of two volumes of loading dye (80% formamide, 10 mM sodium hydroxide, 1 mM sodium EDTA, 0.1% xylene cyanol, and 0.1% bromphenol blue). Reactions were subjected to 20% denaturing PAGE. Gels were dried and visualized by using a Typhoon 8600 and ImageQuant software (Molecular Dynamics).

MDA-MB-435 = experiment: NCI screen cytotoxicity, breast MDA-MB-435; assay type: cell-based; details: Homo sapiens, MDA-MB-435, read-out: Cytotoxicity (GI50 in μM) breast MDA-MB-435; 50% growth inhibition
SN12C = experiment: NCI screen cytotoxicity, renal SN12C; assay type: cell-based; details: Homo sapiens, 50% growth inhibition
[1] = test system: all human cancer cell lines successfully tested; experiment: NCI screen, mean graph midpoint (MGM) for growth inhibition; details: for GI50: Homo sapiens, read-out: MGM (μM); for MGM: series (B), mean graph midpoint GI50, ± standard error where two determinations
HOP-62 = experiment: NCI screen cytotoxicity, lung HOP-62; assay type: cell-based; details: Homo sapiens, 50% growth inhibition
OVCAR-3 = experiment: NCI screen cytotoxicity, ovarian OVCAR-3; details: Homo sapiens, OVCAR-3, read-out: Cytotoxicity (GI50 in μM) ovarian OVCAR-3
DU-145 = experiment: NCI screen cytotoxicity, prostate DU-145; assay type: cell-based; details: Homo sapiens, DU-145, read-out: Cytotoxicity (GI50 in μM) prostate DU-145; 50% growth inhibition
UACC-62 = experiment: NCI screen cytotoxicity, melanoma UACC-62; assay type: cell-based; details: Homo sapiens, 50% growth inhibition
HCT-116 = experiment: NCI screen cytotoxicity, colon HCT-116; assay type: cell-based; details: Homo sapiens, 50% growth inhibition
[2] = series (A), gel-based assay, rec. human Tdp1, read-out: IC50 (μM) recombinant Tdp1

With `NCCCn1c2c(c3ccccc3c1=O)C(=O)c1ccccc1-2` [Compound 1 of (B)] the IC50 (Tdp1) was 12 to 37 µM.

For `COC(=O)C(=O)Nc1ccc2c3c(n(C)c(=O)c2c1)-c1ccccc1C3=O` [Compound 9 of (B), Methyl 2-[(6-Methyl-5,11-dioxo-6,11-dihydro-5H-indeno[1,2-c]isoquinolin-3-yl)amino]-2-oxoacetate], the “Top1 (compound-induced DNA cleavage, semiquantitative scale)” value (Human recombinant Top1) was 0, the IC50 (Tdp1) was over 111 µM and the “Tdp1 inhibitory activity (in words)” value (Tdp1) was “inactive”.

With `COC(=O)CC(=O)Nc1ccc2c3c(n(C)c(=O)c2c1)-c1ccccc1C3=O` [Compound 10 of (B), Methyl 3-[(6-Methyl-5,11-dioxo-6,11-dihydro-5H-indeno[1,2-c]isoquinolin-3-yl)amino]-3-oxopropanoate] the “Top1 (compound-induced DNA cleavage, semiquantitative scale)” value (Human recombinant Top1) was 0 and the IC50 (Tdp1) was over 111 µM.

For `COC(=O)CCC(=O)Nc1ccc2c3c(n(C)c(=O)c2c1)-c1ccccc1C3=O` [Compound 11 of (B), Methyl 4-[(6-Methyl-5,11-dioxo-6,11-dihydro-5H-indeno[1,2-c]isoquinolin-3-yl)amino]-4-oxobutanoate], the “Top1 (compound-induced DNA cleavage, semiquantitative scale)” value (Human recombinant Top1) was “(+)” and the IC50 (Tdp1) was over 111 µM.

With `COC(=O)CCCC(=O)Nc1ccc2c3c(n(C)c(=O)c2c1)-c1ccccc1C3=O` [Compound 12 of (B), Methyl 5-[(6-Methyl-5,11-dioxo-6,11-dihydro-5H-indeno[1,2-c]isoquinolin-3-yl)amino]-5-oxopentanoate] the “Top1 (compound-induced DNA cleavage, semiquantitative scale)” value (Human recombinant Top1) was “+” and the IC50 (Tdp1) was over 111 µM.

In the case of `COC(=O)CCCCC(=O)Nc1ccc2c3c(n(C)c(=O)c2c1)-c1ccccc1C3=O` [Compound 13 of (B), Methyl 6-[(6-Methyl-5,11-dioxo-6,11-dihydro-5H-indeno[1,2-c]isoquinolin-3-yl)amino]-6-oxohexanoate], the “Top1 (compound-induced DNA cleavage, semiquantitative scale)” value (Human recombinant Top1) is reported as 0 and the IC50 (Tdp1) is reported as over 111 µM.

With `Cn1c2c(c3ccc(NC(=O)CC(=O)O)cc3c1=O)C(=O)c1ccccc1-2` [Compound 15 of (B), 3-[(6-Methyl-5,11-dioxo-6,11-dihydro-5H-indeno[1,2-c]isoquinolin-3-yl)amino]-3-oxopropanoic Acid] the IC50 (Tdp1) was over 111 µM and the “Tdp1 inhibitory activity (in words)” value (Tdp1) was “inactive”.

For `COC(=O)CCC(=O)Nc1ccc2c3c(n(CCCN)c(=O)c2c1)-c1ccccc1C3=O` [Compound 24 of (B), Methyl 4-[(6-(3-Aminopropyl)-5,11-dioxo-6,11-dihydro-5H-indeno[1,2-c]isoquinolin-3-yl)amino]-4-oxobutanoate], the “Top1 (compound-induced DNA cleavage, semiquantitative scale)” value (Human recombinant Top1) was “(+)” and the IC50 (Tdp1) was 37 to 111 µM.

For `Cl.NCCCn1c2c(c3ccc(NC(=O)C(=O)O)cc3c1=O)C(=O)c1ccccc1-2` [Compound 32 of (B), 2-[(6-(3-Aminopropyl)-5,11-dioxo-6,11-dihydro-5H-indeno[1,2-c]isoquinolin-3-yl)amino]-2-oxoacetic Acid Hydrochloride], the “Top1 (compound-induced DNA cleavage, semiquantitative scale)” value (Human recombinant Top1) was “+” and the IC50 (Tdp1) was over 111 µM.

For `Cl.NCCCn1c2c(c3ccc(NC(=O)CC(=O)O)cc3c1=O)C(=O)c1ccccc1-2` [Compound 33 of (B), 3-[(6-(3-Aminopropyl)-5,11-dioxo-6,11-dihydro-5H-indeno[1,2-c]isoquinolin-3-yl)amino]-3-oxopropanoic Acid Hydrochloride], the “Top1 (compound-induced DNA cleavage, semiquantitative scale)” value (Human recombinant Top1) was “+” and the IC50 (Tdp1) was over 111 µM.

With `Cl.NCCCn1c2c(c3ccc(NC(=O)CCC(=O)O)cc3c1=O)C(=O)c1ccccc1-2` [Compound 34 of (B), 4-[(6-(3-Aminopropyl)-5,11-dioxo-6,11-dihydro-5H-indeno[1,2-c]isoquinolin-3-yl)amino]-4-oxobutanoic Acid Hydrochloride] the “Top1 (compound-induced DNA cleavage, semiquantitative scale)” value (Human recombinant Top1) was “+” and the IC50 (Tdp1) was over 111 µM.

`Cl.NCCCn1c2c(c3ccc(NC(=O)CCCC(=O)O)cc3c1=O)C(=O)c1ccccc1-2` [Compound 35 of (B), 5-[(6-(3-Aminopropyl)-5,11-dioxo-6,11-dihydro-5H-indeno[1,2-c]isoquinolin-3-yl)amino]-5-oxopentanoic Acid Hydrochloride] was tested, and the “Top1 (compound-induced DNA cleavage, semiquantitative scale)” value (Human recombinant Top1) was 0 and the IC50 (Tdp1) was over 111 µM.

`Cl.NCCCn1c2c(c3ccc(NC(=O)CCCCC(=O)O)cc3c1=O)C(=O)c1ccccc1-2` [Compound 36 of (B), 6-[(6-(3-Aminopropyl)-5,11-dioxo-6,11-dihydro-5H-indeno[1,2-c]isoquinolin-3-yl)amino]-6-oxohexanoic Acid Hydrochloride] was tested, and the “Top1 (compound-induced DNA cleavage, semiquantitative scale)” value (Human recombinant Top1) was “+” and the IC50 (Tdp1) was over 111 µM.

In the case of `CCOC(=O)CNc1ccc2c3c(n(C)c(=O)c2c1)-c1ccccc1C3=O` [Compound 38 of (B), Ethyl 2-[(6-Methyl-5,11-dioxo-6,11-dihydro-5H-indeno[1,2-c]isoquinolin-3-yl)amino]acetate], the “Top1 (compound-induced DNA cleavage, semiquantitative scale)” value (Human recombinant Top1) is reported as 0, the IC50 (Tdp1) is reported as over 111 µM and the “Tdp1 inhibitory activity (in words)” value (Tdp1; listed as 38) is reported as “inactivity; also recorded: inactive”.

`Cn1c2c(c3ccc(NCC(=O)O)cc3c1=O)C(=O)c1ccccc1-2` [Compound 41 of (B), 2-[(6-Methyl-5,11-dioxo-6,11-dihydro-5H-indeno[1,2-c]isoquinolin-3-yl)-amino]acetic Acid] was tested, and the “Top1 (compound-induced DNA cleavage, semiquantitative scale)” value (Human recombinant Top1) was 0, the IC50 (Tdp1) was over 111 µM and the “Tdp1 inhibitory activity (in words)” value (Tdp1; listed as 41) was “inactivity; also recorded: inactive”.

`CC(C)(C)OC(=O)NCCCn1c2c(c3ccc(NCC(=O)O)cc3c1=O)C(=O)c1ccccc1-2` [Compound 42 of (B), 2-((6-(3-((tert-Butoxycarbonyl)amino)propyl)-5,11-dioxo-6,11-dihydro-5H-indeno[1,2-c]isoquinolin-3-yl)amino)acetic Acid] was tested, and the “Top1 (compound-induced DNA cleavage, semiquantitative scale)” value (Human recombinant Top1) was 0, the IC50 (Tdp1) was over 111 µM and the “Tdp1 inhibitory activity (in words)” value (Tdp1) was “inactivity”.

`COc1ccc2c(c1)-c1c(c3ccc([N+](=O)[O-])cc3c(=O)n1CCCBr)C2=O` [Compound 49 of (B), 6-(3-Bromopropyl)-5,6-dihydro-8-methoxy-3-nitro-5,11-dioxo-11H-indeno[1,2-c]isoquinoline] was tested, and the “Top1 (compound-induced DNA cleavage, semiquantitative scale)” value (Human recombinant Top1) was “+++”, the IC50 (Tdp1) was over 111 µM and the “Tdp1 inhibitory activity (in words)” value (Tdp1) was “very weak or inactive”.

With `COc1ccc2c(c1)-c1c(c3ccc([N+](=O)[O-])cc3c(=O)n1CCCN=[N+]=[N-])C2=O` [Compound 50 of (B), 6-(3-Azidopropyl)-5,6-dihydro-8-methoxy-3-nitro-5,11-dioxo-11H-indeno[1,2-c]isoquinoline] the “Top1 (compound-induced DNA cleavage, semiquantitative scale)” value (Human recombinant Top1) was “+”, the IC50 (Tdp1) was over 111 µM and the “Tdp1 inhibitory activity (in words)” value (Tdp1) was “very weak or inactive”.

With `COc1ccc2c(c1)-c1c(c3ccc([N+](=O)[O-])cc3c(=O)n1CCCn1ccnc1)C2=O` [Compound 52 of (B), 6-(3-(1H-Imidazol-1-yl)propyl)-8-methoxy-3-nitro-5H-indeno[1,2-c]isoquinoline-5,11(6H)-dione] the GI50 (MDA-MB-435) was 0.03 µM, the GI50 (SN12C) was under 0.01 µM and the “suppression of DNA cleavage at high drug concentration” value (Human recombinant Top1; 100 μM) was “slight suppression”. For the same molecule, the “Top1 (compound-induced DNA cleavage, semiquantitative scale)” value (Human recombinant Top1) was “+++”, the GI50 [1] was 0.02 µM and the “MGM” value ([1]; listed as 52) was 0.02 ± 0.0006 µM. The GI50 (HOP-62) was under 0.01 µM, the GI50 (OVCAR-3) was 0.03 µM and the “Tdp1 (IC50, semiquantitative scale)” value (Tdp1) was “(+)”. For the same molecule, the “Tdp1 inhibitory activity (in words)” value (Tdp1) was “very weak or inactive”, the GI50 (DU-145) was under 0.01 µM and the GI50 (UACC-62) was under 0.01 µM. For the same molecule, the GI50 (HCT-116) was under 0.01 µM.

In the case of `COc1ccc2c(c1)-c1c(c3ccc([N+](=O)[O-])cc3c(=O)n1CCCN1CCOCC1)C2=O` [Compound 53 of (B), 8-Methoxy-6-(3-morpholinopropyl)-3-nitro-5H-indeno[1,2-c]isoquinoline-5,11(6H)-dione], the “Top1 (compound-induced DNA cleavage, semiquantitative scale)” value (Human recombinant Top1) is reported as “++”, the IC50 (Tdp1) is reported as over 111 µM and the “Tdp1 inhibitory activity (in words)” value (Tdp1) is reported as “very weak or inactive”.

In the case of `COc1ccc2c(c1)C(=O)c1c-2n(CCCN)c(=O)c2cc([N+](=O)[O-])ccc12` [Compound 54 of (B)], the GI50 (SN12C) is reported as under 0.01 µM, the GI50 [1] is reported as 0.02 µM and the “MGM” value ([1]; listed as 54) is reported as 0.02 ± 0.0008 µM. It also gave a GI50 (HOP-62) of under 0.01 µM, a GI50 (UACC-62) of under 0.01 µM and a GI50 (HCT-116) of under 0.01 µM.

With `O=C1c2ccccc2-c2c1c1ccc([N+](=O)[O-])cc1c(=O)n2CCCO` [Compound 63 of (B)] the GI50 (MDA-MB-435) was 1.97 µM, the GI50 (SN12C) was 0.47 µM and the GI50 [1] was 0.89 ± 0.22 µM. The GI50 (OVCAR-3) was 0.87 µM, the GI50 (DU-145) was 0.43 µM and the GI50 (UACC-62) was 0.31 µM. It also gave a GI50 (HCT-116) of 0.19 µM.

For `Cl.NCCCCn1c2c(c3ccccc3c1=O)C(=O)c1ccccc1-2` [Compound 71 of (A)], the “Top1 inhibition (semiquantitative scale)” value (Human recombinant Top1; series (A), relative to 1 μM camptothecin) was “+++ (between 75% and 95% activity)”.

`Cl.NCCCCCCCCCCCn1c2c(c3ccccc3c1=O)C(=O)c1ccccc1-2` [Compound 78 of (A)] was tested, and the “Top1 (compound-induced DNA cleavage due to Top1 inhibition)” value (Human recombinant Top1; relative to 1 μM camptothecin) was “+ (between 20 and 50%, activity)” and the IC50 (Tdp1; [2]) was 13 µM.

`Cl.NCCCCCCCCCCCCn1c2c(c3ccccc3c1=O)C(=O)c1ccccc1-2` [Compound 79 of (A)] was tested, and the “Top1 (compound-induced DNA cleavage due to Top1 inhibition)” value (Human recombinant Top1; relative to 1 μM camptothecin) was 0/+ and the IC50 (Tdp1; [2]) was 15 µM.
